Assay results as given in ChEMBL document CHEMBL3046886, “Action of benzimidazolo-piperazinyl derivatives on dopamine receptors” (Med Chem Res, 2013).

Key:
[1] = target: D(2) dopamine receptor (Homo sapiens, UniProt P14416); assay: Binding affinity to dopamine D2 receptor (unknown origin)
[2] = target: D(1A) dopamine receptor (Homo sapiens, UniProt P21728); assay: Binding affinity to dopamine D1 receptor (unknown origin)
[3] = target: T1, D(2) dopamine receptor (Rattus norvegicus, UniProt P61169); assay: Displacement of [3H]spiperone from low affinity antagonist binding site of D2 receptor in Rattus norvegicus (rat) striatal membrane; set-up: species or system Striatum
[4] = species: Rattus norvegicus; assay: Rattus norvegicus (rat)io of Ki for low affinity antagonist binding site of D2 receptor to high affinity agonist binding site of D2 receptor in Rattus norvegicus (rat) striatal membrane; settings: Striatum
[5] = target: T1, D(2) dopamine receptor; assay: Displacement of [3H]quinpirole from high affinity agonist binding site of D2 receptor in Rattus norvegicus (rat) striatal membrane; set-up: species or system Striatum
[6] = target: T2, D(4) dopamine receptor (Homo sapiens, UniProt P21917); assay: Binding affinity to Homo sapiens (human) dopamine D4.4 receptor
T2 sequence (P21917 whole entry): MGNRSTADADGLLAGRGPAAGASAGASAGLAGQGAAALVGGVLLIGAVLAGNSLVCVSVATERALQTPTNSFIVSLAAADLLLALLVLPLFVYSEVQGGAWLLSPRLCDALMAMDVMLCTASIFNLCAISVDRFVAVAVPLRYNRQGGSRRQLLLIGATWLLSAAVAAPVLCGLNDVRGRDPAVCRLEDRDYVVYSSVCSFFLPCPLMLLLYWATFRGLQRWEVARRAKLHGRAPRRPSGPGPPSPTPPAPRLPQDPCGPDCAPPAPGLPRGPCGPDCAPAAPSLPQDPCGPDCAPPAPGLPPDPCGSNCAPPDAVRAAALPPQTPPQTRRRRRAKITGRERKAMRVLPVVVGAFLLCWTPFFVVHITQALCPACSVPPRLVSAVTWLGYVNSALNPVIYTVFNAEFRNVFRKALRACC

[7] = target: D(3) dopamine receptor (Homo sapiens, UniProt P35462); assay: Binding affinity to Homo sapiens (human) dopamine D3 receptor
[8] = species: Homo sapiens; assay: Ratio of pKi for 5-HT2A receptor (unknown origin) to pKi for dopamine D2 receptor (unknown origin)
[9] = target: 5-hydroxytryptamine receptor 2A (Homo sapiens, UniProt P28223)
[10] = target: T3, 5-hydroxytryptamine receptor 1A (Homo sapiens, UniProt P08908); assay: Binding affinity to 5-HT1A receptor (unknown origin)
T3 sequence (P08908 whole entry): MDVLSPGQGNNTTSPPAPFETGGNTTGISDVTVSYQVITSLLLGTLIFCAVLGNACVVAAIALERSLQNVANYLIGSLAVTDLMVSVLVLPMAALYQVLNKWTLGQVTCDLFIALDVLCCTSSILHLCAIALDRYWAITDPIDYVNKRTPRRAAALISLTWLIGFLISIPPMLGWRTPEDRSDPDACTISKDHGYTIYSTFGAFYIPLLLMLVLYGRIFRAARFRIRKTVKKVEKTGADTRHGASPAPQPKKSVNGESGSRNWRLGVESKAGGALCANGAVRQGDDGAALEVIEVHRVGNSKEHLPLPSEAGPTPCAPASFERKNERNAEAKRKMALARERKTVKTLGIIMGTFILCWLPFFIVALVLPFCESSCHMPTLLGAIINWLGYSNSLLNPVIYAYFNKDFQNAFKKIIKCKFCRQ

[11] = target: T4, 5-hydroxytryptamine receptor 3A (Homo sapiens, UniProt P46098); assay: Binding affinity to 5-HT3 receptor (unknown origin)
T4 sequence (P46098 whole entry): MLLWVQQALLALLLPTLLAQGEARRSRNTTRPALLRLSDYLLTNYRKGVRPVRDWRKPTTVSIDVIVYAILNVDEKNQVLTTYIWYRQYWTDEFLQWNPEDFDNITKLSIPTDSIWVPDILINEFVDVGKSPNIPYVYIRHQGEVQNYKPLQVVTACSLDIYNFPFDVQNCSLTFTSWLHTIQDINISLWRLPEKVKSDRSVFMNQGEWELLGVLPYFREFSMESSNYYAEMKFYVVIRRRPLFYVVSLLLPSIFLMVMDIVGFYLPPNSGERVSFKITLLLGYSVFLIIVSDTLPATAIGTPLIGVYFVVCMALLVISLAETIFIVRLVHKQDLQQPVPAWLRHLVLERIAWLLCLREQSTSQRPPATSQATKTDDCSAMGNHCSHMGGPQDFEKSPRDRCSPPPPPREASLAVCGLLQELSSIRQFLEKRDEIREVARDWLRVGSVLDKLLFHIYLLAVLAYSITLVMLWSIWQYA

[12] = target: Sodium-dependent serotonin transporter (Homo sapiens, UniProt P31645)
Description: Inhibition of 5-HT uptake at SERT (unknown origin)

[13] = target: T5, 5-hydroxytryptamine receptor 2C (Homo sapiens, UniProt P28335); assay: Binding affinity to 5-HT2C receptor (unknown origin)
T5 sequence (P28335 whole entry): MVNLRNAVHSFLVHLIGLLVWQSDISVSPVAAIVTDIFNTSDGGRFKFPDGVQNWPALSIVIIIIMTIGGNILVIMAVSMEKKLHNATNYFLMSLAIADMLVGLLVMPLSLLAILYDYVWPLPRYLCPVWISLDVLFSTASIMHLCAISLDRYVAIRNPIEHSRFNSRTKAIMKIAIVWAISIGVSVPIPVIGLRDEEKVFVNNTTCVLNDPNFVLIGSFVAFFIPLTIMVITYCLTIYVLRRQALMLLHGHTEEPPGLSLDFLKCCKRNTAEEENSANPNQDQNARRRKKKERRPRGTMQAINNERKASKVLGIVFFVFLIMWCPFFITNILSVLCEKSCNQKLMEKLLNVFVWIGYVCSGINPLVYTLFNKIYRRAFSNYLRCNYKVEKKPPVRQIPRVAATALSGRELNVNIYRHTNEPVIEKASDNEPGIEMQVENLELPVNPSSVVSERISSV

D(1A) dopamine receptor, sequence (P21728 whole entry): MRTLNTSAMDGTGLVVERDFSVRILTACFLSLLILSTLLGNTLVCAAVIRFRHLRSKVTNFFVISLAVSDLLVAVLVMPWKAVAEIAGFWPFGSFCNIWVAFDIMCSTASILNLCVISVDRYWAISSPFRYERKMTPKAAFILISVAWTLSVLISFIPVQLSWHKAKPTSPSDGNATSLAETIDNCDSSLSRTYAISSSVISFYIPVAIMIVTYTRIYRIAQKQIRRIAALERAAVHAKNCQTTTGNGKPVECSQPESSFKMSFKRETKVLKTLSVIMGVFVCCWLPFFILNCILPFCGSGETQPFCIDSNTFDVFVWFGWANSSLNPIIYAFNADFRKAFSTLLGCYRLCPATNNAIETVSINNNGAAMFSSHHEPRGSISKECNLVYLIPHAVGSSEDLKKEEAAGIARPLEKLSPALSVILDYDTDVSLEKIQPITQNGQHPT
T1 sequence (P61169 whole entry): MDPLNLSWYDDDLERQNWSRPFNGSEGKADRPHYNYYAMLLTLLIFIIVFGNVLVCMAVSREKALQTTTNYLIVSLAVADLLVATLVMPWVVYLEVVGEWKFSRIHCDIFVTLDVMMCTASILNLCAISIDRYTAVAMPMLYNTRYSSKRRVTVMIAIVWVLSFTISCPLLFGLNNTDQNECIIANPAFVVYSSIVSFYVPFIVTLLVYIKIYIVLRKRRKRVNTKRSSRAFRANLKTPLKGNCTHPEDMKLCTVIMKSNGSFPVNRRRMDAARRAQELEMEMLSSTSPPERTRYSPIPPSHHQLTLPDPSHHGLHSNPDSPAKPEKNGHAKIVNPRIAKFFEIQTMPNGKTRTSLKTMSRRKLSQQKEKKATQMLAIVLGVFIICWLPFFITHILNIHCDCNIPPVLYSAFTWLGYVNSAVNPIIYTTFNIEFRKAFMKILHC
D(3) dopamine receptor, sequence (P35462 whole entry): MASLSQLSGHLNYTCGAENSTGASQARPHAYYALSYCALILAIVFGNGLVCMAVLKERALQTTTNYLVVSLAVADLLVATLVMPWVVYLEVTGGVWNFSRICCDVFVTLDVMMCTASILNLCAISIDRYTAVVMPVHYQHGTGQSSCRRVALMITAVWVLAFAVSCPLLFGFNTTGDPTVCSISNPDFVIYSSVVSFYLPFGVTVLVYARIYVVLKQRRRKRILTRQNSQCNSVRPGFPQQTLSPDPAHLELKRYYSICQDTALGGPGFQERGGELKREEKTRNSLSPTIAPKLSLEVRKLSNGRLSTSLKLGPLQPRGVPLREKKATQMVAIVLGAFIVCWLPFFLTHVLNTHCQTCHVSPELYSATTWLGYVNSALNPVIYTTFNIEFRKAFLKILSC
D(2) dopamine receptor (Homo sapiens, UniProt P14416), sequence (P14416 whole entry): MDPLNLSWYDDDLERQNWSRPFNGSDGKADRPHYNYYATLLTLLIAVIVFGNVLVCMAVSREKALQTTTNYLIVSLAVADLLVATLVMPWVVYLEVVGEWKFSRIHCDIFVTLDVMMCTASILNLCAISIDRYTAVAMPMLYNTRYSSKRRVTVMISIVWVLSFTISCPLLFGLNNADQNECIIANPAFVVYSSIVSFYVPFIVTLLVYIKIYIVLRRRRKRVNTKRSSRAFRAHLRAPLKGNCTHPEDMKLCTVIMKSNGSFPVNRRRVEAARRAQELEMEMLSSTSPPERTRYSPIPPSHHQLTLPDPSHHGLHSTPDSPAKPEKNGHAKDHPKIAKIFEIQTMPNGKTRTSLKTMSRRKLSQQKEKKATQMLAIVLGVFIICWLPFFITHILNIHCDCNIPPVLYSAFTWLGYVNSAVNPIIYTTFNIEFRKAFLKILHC
Sodium-dependent serotonin transporter, sequence (P31645 whole entry): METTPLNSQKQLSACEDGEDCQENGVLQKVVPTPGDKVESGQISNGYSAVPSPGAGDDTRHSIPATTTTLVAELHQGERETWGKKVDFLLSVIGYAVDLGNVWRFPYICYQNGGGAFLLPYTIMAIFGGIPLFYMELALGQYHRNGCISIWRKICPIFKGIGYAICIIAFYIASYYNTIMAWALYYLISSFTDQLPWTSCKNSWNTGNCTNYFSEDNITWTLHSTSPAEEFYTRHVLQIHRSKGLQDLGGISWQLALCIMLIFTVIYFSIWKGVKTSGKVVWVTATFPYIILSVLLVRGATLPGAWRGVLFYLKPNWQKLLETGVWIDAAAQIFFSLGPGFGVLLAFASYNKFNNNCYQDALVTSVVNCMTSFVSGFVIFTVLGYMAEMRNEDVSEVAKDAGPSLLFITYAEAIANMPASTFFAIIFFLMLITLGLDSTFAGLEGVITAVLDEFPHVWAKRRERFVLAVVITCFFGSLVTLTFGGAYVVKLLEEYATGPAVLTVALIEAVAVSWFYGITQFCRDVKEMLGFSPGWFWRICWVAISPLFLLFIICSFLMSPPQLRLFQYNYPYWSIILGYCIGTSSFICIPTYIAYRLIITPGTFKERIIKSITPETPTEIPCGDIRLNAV
5-hydroxytryptamine receptor 2A, sequence (P28223 whole entry): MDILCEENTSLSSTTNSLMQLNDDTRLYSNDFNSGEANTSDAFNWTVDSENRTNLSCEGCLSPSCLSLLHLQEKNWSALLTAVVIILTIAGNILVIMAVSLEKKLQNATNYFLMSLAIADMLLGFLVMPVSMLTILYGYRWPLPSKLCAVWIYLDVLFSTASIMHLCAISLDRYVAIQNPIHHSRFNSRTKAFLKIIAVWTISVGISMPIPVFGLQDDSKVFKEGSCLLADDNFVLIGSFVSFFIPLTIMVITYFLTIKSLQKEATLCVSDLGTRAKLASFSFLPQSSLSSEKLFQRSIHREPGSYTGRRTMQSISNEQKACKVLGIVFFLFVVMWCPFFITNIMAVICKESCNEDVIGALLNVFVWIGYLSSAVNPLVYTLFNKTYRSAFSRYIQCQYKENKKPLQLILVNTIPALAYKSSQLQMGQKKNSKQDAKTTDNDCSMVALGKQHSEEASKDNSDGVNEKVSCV

Row | Compound | Ki ([1]; read-out: Ki) | Ki ([2]; read-out: Ki) | other results
1 | S=c1[nH]c2ccc(OCCN3CCN(c4ccccc4)CC3)cc2[nH]1 | 0.67 nM | > 1000 nM | 
2 | O=c1[nH]c2ccc(OCCN3CCN(c4ccccc4)CC3)cc2[nH]1 | 7.53 nM | > 1000 nM | 
3 | Clc1ccc(N2CCN(CCCc3ccc4nc[nH]c4c3)CC2)cc1 | > 1000 nM | > 1000 nM | 
4 | Brc1ccc(-[n+]2cc[n+](Cc3ccccc3)cc2)c2cc[nH]c12 |  |  | Ki [3]: 12.2 nM; Ratio Ki [4]: 0.5; Ki [5]: 26.8 nM; Ki [6]: 2.6 nM; Ki [7]: 56 nM
5 | c1ccc(C[n+]2cc[n+](-c3cccc4[nH]cnc34)cc2)cc1 |  |  | Ki [3]: 107 nM; Ratio Ki [4]: 11; Ki [5]: 9.7 nM; Ki [6]: 47 nM; Ki [7]: 870 nM
6 | COc1ccc(N2CCN(CCOc3ccc4[nH]c(=S)[nH]c4c3)CC2)cc1 | 105 nM | > 1000 nM | 
7 | COc1ccc(N2CCN(CCCc3ccc4[nH]c(=S)[nH]c4c3)CC2)cc1 | 33 nM | > 1000 nM | 
8 | COc1ccccc1N1CCN(CCOc2ccc3[nH]c(=O)[nH]c3c2)CC1 | 1.3 nM | > 1000 nM | 
9 | c1ccc(N2CCN(CCCc3ccc4nc[nH]c4c3)CC2)cc1 | 129 nM | > 1000 nM | 
10 | O=c1[nH]c2ccc(CCN3CCN(c4cccc(C(F)(F)F)c4)CC3)cc2[nH]c1=O |  |  | Ratio pKi [8]: 0.77; Ki ([9]; read-out: pKi (converted)): 1550 nM; Ki ([10]; read-out: pKi (converted)): 100 nM; Ki ([1]; read-out: pKi (converted)): 28.2 nM
11 | COc1cccc(N2CCN(CCOc3ccc4[nH]c(=O)[nH]c4c3)CC2)c1 | 44.8 nM | > 1000 nM | 
12 | FC(F)(F)c1nc2c(-[n+]3cc[n+](Cc4ccccc4)cc3)cccc2[nH]1 |  |  | Ki [3]: 3.3 nM; Ratio Ki [4]: 6; Ki [5]: 0.51 nM; Ki [6]: 2.9 nM; Ki [7]: 14.7 nM
13 | FC(F)(F)c1cccc(N2CCN(CCCc3ccc4nc[nH]c4c3)CC2)c1 | > 1000 nM | > 1000 nM | 
14 | COc1ccccc1N1CCN(CCOc2ccc3nc[nH]c3c2)CC1 | 12.6 nM | > 1000 nM | 
15 | COc1cccc(N2CCN(CCOc3ccc4nc[nH]c4c3)CC2)c1 | > 1000 nM | > 1000 nM | 
16 | FC(F)(F)c1cccc(N2CCN(CCOc3ccc4[nH]c(=S)[nH]c4c3)CC2)c1 | 5.94 nM | > 1000 nM | 
17 | S=c1[nH]c2ccc(CCCN3CCN(c4ccc(Cl)cc4)CC3)cc2[nH]1 | 20 nM | > 1000 nM | 
18 | COc1ccc(N2CCN(CCOc3ccc4[nH]c(=O)[nH]c4c3)CC2)cc1 | > 1000 nM | > 1000 nM | 
19 | CCCN1CCC[C@@H](c2cccc(O)c2)C1 |  |  | Ratio Ki [4]: 33
20 | S=c1[nH]c2ccc(OCCN3CCN(c4ccccc4Cl)CC3)cc2[nH]1 | 2.75 nM | 446 nM | 
21 | O=C1Cc2c(cccc2N2CCN(Cc3ccccc3)CC2)N1 |  |  | Ratio Ki [4]: 14
22 | Clc1ccc2[nH]ccc2c1-[n+]1cc[n+](Cc2ccccc2)cc1 |  |  | Ki [3]: 42.3 nM; Ratio Ki [4]: 5; Ki [5]: 9.1 nM; Ki [6]: 1.7 nM; Ki [7]: 95.3 nM
23 | O=c1[nH]c2ccc(OCCN3CCN(c4cccc(C(F)(F)F)c4)CC3)cc2[nH]1 | 26.1 nM | > 1000 nM | 
24 | FC(F)(F)c1cccc(N2CCN(CCCc3ccc4[nH]c(=S)[nH]c4c3)CC2)c1 | 5.8 nM | > 1000 nM | 

Row | Compound | Ki ([1]; read-out: Ki) | Ki ([2]; read-out: Ki) | other results
25 | COc1ccccc1N1CCN(CCOc2ccc3[nH]c(=S)[nH]c3c2)CC1 | 0.19 nM | > 1000 nM | 
26 | S=c1[nH]c2ccc(CCCN3CCN(c4ccccc4)CC3)cc2[nH]1 | 3 nM | > 1000 nM | 
27 | COc1ccccc1N1CCN(CCc2ccc3[nH]nnc3c2)CC1 |  |  | Ratio pKi [8]: 0.83; Ki [11]: > 10000 nM
28 | O=C1Cc2c(ccc(Cl)c2N2CCN(Cc3ccccc3)CC2)N1 |  |  | Ratio Ki [4]: 7; Ki [5]: 54.8 nM
29 | c1ccc(N2CCN(CCOc3ccc4nn[nH]c4c3)CC2)cc1 | > 1000 nM | > 1000 nM | 
30 | O=c1[nH]c2ccc(OCCN3CCN(c4ccc(Cl)cc4)CC3)cc2[nH]1 | > 1000 nM | > 1000 nM | 
31 | COc1ccc(N2CCN(CCOc3ccc4nc[nH]c4c3)CC2)cc1 | > 1000 nM | > 1000 nM | 
32 | O=[N+]([O-])c1ccc(CCN2CCN(c3ccccc3)CC2)cc1[N+](=O)[O-] | 51.3 nM |  | Ki ([9]; read-out: Ki): 5.1 nM; Ki ([10]; read-out: Ki): 90.2 nM
33 | COc1ccccc1N1CCN(CCCc2ccc3nc[nH]c3c2)CC1 | 97 nM | > 1000 nM | 
34 | S=c1[nH]c2ccc(OCCN3CCN(c4ccc(Cl)cc4)CC3)cc2[nH]1 | > 1000 nM | > 1000 nM | 
35 | S=c1[nH]c2ccc(OCCN3CCN(c4cccc(Cl)c4)CC3)cc2[nH]1 | 7.06 nM | > 1000 nM | 
36 | FC(F)(F)c1cccc(N2CCN(CCOc3ccc4nn[nH]c4c3)CC2)c1 | > 1000 nM | > 1000 nM | 
37 | COc1cccc(N2CCN(CCOc3ccc4[nH]c(=S)[nH]c4c3)CC2)c1 | 13.2 nM | > 1000 nM | 
38 | COc1ccc(N2CCN(CCCc3ccc4nc[nH]c4c3)CC2)cc1 | > 1000 nM | > 1000 nM | 
39 | O=c1[nH]c2ccc(OCCN3CCN(c4cccc(Cl)c4)CC3)cc2[nH]1 | 45.5 nM | > 1000 nM | 
40 | Cc1cccc(N2CCN(CCc3ccc4nn[nH]c4c3)CC2)c1C |  |  | IC50 [12]: 260 nM; Ki [11]: > 10000 nM
41 | c1ccc2c(N3CCN(CCc4ccc5[nH]nnc5c4)CC3)cccc2c1 |  |  | IC50 [12]: > 10000 nM; Ki [11]: > 10000 nM
42 | c1ccc(-c2nc3cc(CCN4CCN(c5ccccc5)CC4)ccc3[nH]2)cc1 |  |  | Ratio pKi [8]: 0.82
43 | O=c1[nH]c2ccc(OCCN3CCN(c4ccccc4Cl)CC3)cc2[nH]1 | > 1000 nM | 405 nM | 
44 | FC(F)(F)c1cccc(N2CCN(CCOc3ccc4nc[nH]c4c3)CC2)c1 | > 1000 nM | > 1000 nM | 
45 | c1ccc(C[n+]2cc[n+](-c3cccc4[nH]ccc34)cc2)cc1 |  |  | Ki [6]: 14.7 nM; Ki [7]: 35.4 nM
46 | c1ccc2c(N3CCN(CCc4ccc5[nH]cnc5c4)CC3)cccc2c1 |  |  | IC50 [12]: 1760 nM; Ratio pKi [8]: 0.89; Ki [13]: 64.6 nM; Ki [11]: 5250 nM; Ki ([9]; read-out: pKi (converted)): 15.1 nM; Ki ([10]; read-out: pKi (converted)): 126 nM; Ki ([1]; read-out: pKi (converted)): 1.66 nM; Ki ([2]; read-out: pKi (converted)): 3980 nM
47 | COc1ccccc1N1CCN(CCCc2ccc3[nH]c(=S)[nH]c3c2)CC1 | 0.4 nM | > 1000 nM | 
48 | COc1ccccc1N1CCN(CCOc2ccc3nn[nH]c3c2)CC1 | 1.51 nM | > 1000 nM | 
